Laboratory results taken from paper PMC10690437 (Nature immunology, 2023).

Tested on: HLA-E
Assay: HLA-E expression on PBMCs after IFNγ treatment
Assay type: cell-based, human
Conditions: PBMCs cultured with 5 ng ml^−1 IFNγ for 2 days; 3D12 flow cytometry

In the case of “IFNγ: interferon-γ (BioLegend, PeproTech)”, the “HLA-E surface expression on peripheral blood cells” value was “increase in HLA-E surface expression”.
